Laboratory results taken from patent US20100184946A1, “Preparation of Fine Particles” (priority 2007, published 2010).

Test: Particle form by X-ray powder diffraction (XRPD)
Format: physicochemical
Settings: starting material before the process; product after freeze drying
Method: The physical form of the paclitaxel particles was measured using X-ray powder diffraction method (“XRPD”) before the process (i.e. the starting material) and again after the product of the process had been freeze dried.

SMILES: CC(=O)O[C@H]1C(=O)[C@@]2(C)[C@H]([C@H](OC(=O)c3ccccc3)[C@]3(O)C[C@H](OC(=O)[C@H](O)[C@@H](NC(=O)c4ccccc4)c4ccccc4)C(C)=C1C3(C)C)[C@]1(OC(C)=O)CO[C@@H]1C[C@@H]2O [paclitaxel]
- physical form (XRPD): crystal structure ordering
